The values that follow come from patent US10738024B2, “Compounds for treatment of angiogenesis-mediated diseases” (Indiana University Research and Technology Corporation, priority 2013, dated 2020).

Series [1] relates to 92-1 uveal melanoma cells. Briefly: ALAMARBLUE proliferation assay in 92-1 uveal melanoma cells. Type of series: cell-based. The following applies: 50% growth inhibitory concentration, 48 hours, alamarBlue. The protocol:
(§1) For proliferation assays, cells (2500 per well) were seeded in a 96-well clear bottom black polystyrene plate in a total volume of 100 μL. HUVECs and HRECs were grown in EGM-2 and CSC+ media respectively, while 92-1 and Y79 cells were maintained in RPMI+10% FBS, penicillin/streptomycin and RB medium (IMDM+10% FBS+penicillin/streptomycin+10 μg/mL insulin+55 μM β-mercaptoethanol) respectively. After 24 hours of incubation of the plate at 37° C., the compounds were dissolved in DMSO and added in the concentration range of 500 μM to 0.5 nM. The plate was then incubated at 37° C. and 5% CO2 conditions for 48 hours before adding 11.1 μL of alamar blue reagent for each well. Four hours after the addition of ALAMARBLUE® reagent, fluorescence readings with excitation and emission wavelengths of 560 nm and 590 nm respectively were taken and the data was analyzed in GraphPad Prism software. The dose response curves were generated and the GI50 values were calculated using the equation: Y=100/(1+10^(X−Log GI50)) (Table 1).

Series [2] concerns HRECs. Briefly: ALAMARBLUE proliferation assay in HRECs. Type of series: cell-based, human. The following applies: Homo sapiens, HREC; 50% growth inhibitory concentration, 48 hours, alamarBlue; read-out: GI50 HREC. On the procedure: (§2) Particularly, in a 96-well clear bottom black plate, cells (2,500 cells per well) were seeded in a total volume of 100 μL EGM-2. After 24 hours of incubation of the plate at 37° C. and 5% CO2, a DMSO solution of synthetic cremastranone (1) or SH-11052 (2) was added in the concentration range of 0.5 nM to 500 μM (final DMSO concentration=1%). The plate was then further incubated for 48 hours before adding 11.1 μL of ALAMARBLUE® reagent to each well. Four hours after the addition of ALAMARBLUE®, fluorescence readings with excitation and emission wavelengths of 560 nm and 590 nm, respectively, were taken and the data were analyzed in GraphPad Prism software (v. 6.0). Dose response curves were generated and the GI50 values were calculated using the following equation: Y=100/(1+10^(X−Log GI50)).
as §1

In series [3] the test system is HUVECs. Kind of series: ALAMARBLUE proliferation assay in HUVECs. In kind it is cell-based, human. The following applies: Homo sapiens, HUVEC, 48 h, 50% growth inhibitory concentration, alamarBlue. The protocol: as §2, §1
Series [4] has as its system Y-79 retinoblastoma cells. Briefly: ALAMARBLUE proliferation assay in Y-79 retinoblastoma cells. In kind it is cell-based. The conditions noted are these: 50% growth inhibitory concentration, 48 hours. The protocol: as §1
Series [5] deals with retina. The following applies: injection of 10 μM into the vitreous of normal adult mice; cited from earlier work.
Series [6] relates to HUVECs. The following applies: cited from earlier work.
The subject of series [7] is p21^WAF1 (CDKN1A). The conditions noted are these: natural source compound; cited from earlier work.
Series [8] relates to Cdc2 (CDK1). The conditions noted are these: cited from earlier work.
Series [9] concerns TNF-α, IL-6 and IL-8. The following applies: keratinocytes exposed to UV radiation; cited from earlier work.
Series [10] has as its system NF-κB. The conditions noted are these: keratinocytes exposed to UV radiation; cited from earlier work.
The subject of series [11] is new vessel growth induced by bFGF. The conditions noted are these: chick chorioallantoic membrane model; cited from earlier work.
Series [12] concerns reactive oxygen species (ROS). The conditions noted are these: keratinocytes exposed to UV radiation; cited from earlier work.
The subject of series [13] is pathogenic neovascularization. The following applies: in vivo; cited from earlier work.
Series [14] concerns prostaglandin synthesis. The conditions noted are these: microsome assay; cited from earlier work.
The subject of series [15] is choroidal neovascularization. The following applies: murine; cited from earlier work.
For series [16], the system named is cyclooxygenases 1 and 2. The conditions noted are these: purified enzymes; cited from earlier work.
Series [17] has as its system JNK, p38 MAPK, ERK. The conditions noted are these: keratinocytes exposed to UV radiation; cited from earlier work.

As to `COc1ccc(CCC(=O)c2c(O)cc(OC)c(OC)c2OC)cc1O` [Compound 4a, 1-(6-hydroxy-2,3,4-trimethoxyphenyl)-3-(3′-hydroxy-4′-methoxyphenyl) propan-1-one], the concentration for 50% growth inhibition (GI50) is above 100 µM in series [1], 68 µM in series [2], 102 µM in [3] and 68 µM in series [4].
Consider `COc1cc2c(c(OC)c1OC)C(=O)/C(=C/c1ccc([N+](=O)[O-])cc1)CO2` [Compound 11j], for which the concentration for 50% growth inhibition (GI50) in series [1] was found to be 23 µM; in [2], 14 µM; in series [3] it was 6 µM; in series [4], 9 µM.
With `COc1ccc(CCC(=O)c2c(O)cc(OC)c(OC)c2OC)cc1OC` [Compound 4c], the GI50 was above 100 µM in series [1], 123 µM in [2], 74 µM in series [3] and above 100 µM in series [4].
In the case of `COc1ccc(/C=C2\COc3cc(OC)c(OC)c(OC)c3C2=O)cc1OCC(=O)OC(C)(C)C` [Compound 11l], the 50% growth inhibitory concentration (GI50) in series [1] was above 500 µM; in [2], above 500 µM; in series [3], 27 µM; in series [4], 21 µM.
In the case of `COc1cc2c(c(OC)c1OC)C(=O)/C(=C/c1cccc(Cl)c1Cl)CO2` [Compound 11v], the GI50 is 31 µM in series [1], 25.6 µM in [2], 10.4 µM in series [3] and 18 µM in [4].
The like results for `COc1cc2c(c(OC)c1OC)C(=O)/C(=C/c1ccccc1[N+](=O)[O-])CO2` [Compound 11x] were, in that order, 29 µM, 8.6 µM, 9 µM and 8 µM.
In the same order, the values of `COc1cc2c(c(OC)c1OC)C(=O)C(Cc1ccccc1)CO2` (stereo not shown) [Compound 6b, 3-benzyl-5,6,7-trimethoxychroman-4-one] are above 100 µM, above 100 µM, above 100 µM and above 100 µM.
Consider `COc1ccc(/C=C2\COc3cc(OC)c(OC)c(OC)c3C2=O)cc1O` [Compound 11a, (E)-3-(3′-hydroxy-4′-methoxybenzylidene)-5,6,7-trimethoxychroman-4-one], for which the concentration for 50% growth inhibition (GI50) was 0.22 µM in [1], 46 µM in [2], 8 µM in [3] and 44 µM in series [4].
The like results for `COc1ccc(Cc2coc3cc(OC)c(OC)c(OC)c3c2=O)cc1O` [Compound 9a, 3-(3′-hydroxy-4′-methoxybenzyl)-5,6,7-trimethoxy-4H-chromen-4-one] were, in that order, above 100 µM, above 100 µM, above 100 µM and above 100 µM.
The like results for `COc1ccc(CC2COc3cc(OC)c(OC)c(OC)c3C2=O)cc1C(=O)O` (stereo not shown) [Compound 6f] were, in that order, above 250 µM, 131 µM, 92 µM and above 250 µM.
In the same order, the values of `COc1ccc(CN2CCc3cc(OC)c(OC)c(OC)c3C2=O)cc1OCc1ccccc1` [Compound 14, 2-(3-(Benzyloxy)-4-methoxybenzyl)-6,7,8-trimethoxy-3,4-dihydroisoquinolin-1(2H)-one] are 6 µM, 103 µM, 71 µM and above 500 µM.
As to `C=C(Cc1ccc(OC)c(O)c1)C(=O)c1c(O)cc(OC)c(OC)c1OC` [Compound 7, 1-(6-hydroxy-2,3,4-trimethoxyphenyl)-2-(3′-hydroxy-4′-methoxybenzyl)prop-2-en-1-one], the GI50 in [1] came out at 17 µM; in series [2], 10 µM; in series [3], 1.4 µM; in series [4] it was 8 µM.
In the same order, the values of `COc1ccc(/C=C2\COc3cc(OC)c(OC)c(OC)c3C2=O)c(OC)c1OC` [Compound 11w] are above 250 µM, 91 µM, 45 µM and 154 µM.
In the same order, the values of `COc1ccc(/C=C2\COc3cc(OC)c(OC)c(OC)c3C2=O)cc1OCCN1CCCC1` [Compound 11k, (E)-5,6,7-trimethoxy-3-(4-methoxy-3-(2-(pyrrolidin-1-yl)ethoxy)benzylidene)chroman-4-one] are 6 µM, 0.185 µM, 3.5 µM and 3.2 µM.
In the same order, the values of `COc1ccc(/C=C2\COc3cc(OC)c(OC)c(O)c3C2=O)cc1O` [Compound 11q] are 11 µM, 7 µM, 5.4 µM and 6 µM.
Take `COc1cc2c(c(OC)c1OC)C(=O)C(Cc1ccc(O)c(O)c1)CO2` (stereo not shown) [Compound 6e]: the GI50 in [1] is above 250 µM; in series [2], above 250 µM; in [3] it was 77 µM; in [4] it was 98 µM.
For the compound `COc1cc2c(c(O)c1OC)C(=O)C(Cc1ccccc1)CO2` (stereo not shown) [Compound 8b, 3-benzyl-5-hydroxy-6,7-dimethoxychroman-4-one], the GI50 in series [1] was above 100 µM; in series [2] it was above 100 µM; in series [3], 40 µM; in series [4], above 100 µM.
On to `COc1ccc(CC2COc3cc(O)c(OC)c(O)c3C2=O)cc1O` (stereo not shown) [cremastranone, 5,7-dihydroxy-3-(3-hydroxy-4-methoxybenzyl)-6-methoxychroman-4-one], for which, in series [5], the “apoptosis of retinal cells” value is recorded as “nor did it induce apoptosis” and the “cytotoxic or inflammatory effects on the retina” value is given as “no cytotoxic or inflammatory effects”. The “50% growth inhibitory (GI50) concentration value in HUVEC proliferation assay” value in series [6] (reported for compound isolated from C. appendiculata) is given as “low micromolar range”. Moreover, the “proliferation of HUVECs” value in series [6] (via G2/M phase cell cycle arrest) was “blockade of the proliferation”. Besides, the “expression of p21^WAF1 (CDKN1A)” value in [7] is given as “induces expression”. For the same compound, the “expression of Cdc2 (CDK1)” value in [8] is recorded as “down-regulated”. Besides, the “production of cytokines TNF-α, IL-6 and IL-8” value in series [9] is listed as “blocked”. In [10], the “nuclear translocation of NF-κB” value is reported as “blocked nuclear translocation”. Also, the “blocking new vessel growth induced by bFGF” value in series [11] was “as effective as retinoic acid”. The “production of reactive oxygen species (ROS)” value in series [12] was “blocked”. For the same compound, the “blocking pathogenic neovascularization, oxygen-induced retinopathy model” value in series [13] is reported as “showed efficacy”. Further, the “prostaglandin synthesis from arachidonic acid” value in series [14] was “blocked prostaglandin synthesis”. For the same compound, in series [15], the “blocking pathogenic neovascularization, laser photocoagulation model of choroidal neovascularization” value is recorded as “showed efficacy”. For the same compound, the “function of cyclooxygenases 1 and 2” value in series [16] is recorded as “without marked effects”. Moreover, the “phosphorylation of MAPKs (JNK, p38, ERK)” value in series [17] was “decreased phosphorylation”.
For the compound `COc1ccc(/C=C2\CCOc3cc(OC)c(OC)c(OC)c3C2=O)cc1O` [Compound 12, (E)-4-(3-hydroxy-4-methoxybenzylidene)-6,7,8-trimethoxy-3,4-dihydrobenzo[b]oxepin-5(2H)-one], the GI50 in series [1] came out at 145 µM; in [2] it was 35 µM; in [3] it was 30 µM; in series [4] it was 33 µM.
The like results for `COc1cc2c(c(OC)c1OC)C(=O)/C(=C/c1ccc(OCc3ccccc3)cc1)CO2` [Compound 11i] were, in that order, 152 µM, above 500 µM, 284 µM and 465 µM.
